Results on two compounds are retold here after patent US8754094B2, “Methods for heat shock protein dependent cancer treatment” (The Research Foundation of State University of New York, priority 2007, dated 2014).

One data set deals with NCI-H929. Description: cells. The method, then:
For cell survival assays, cells were plated in 96-well culture plates (BD Biosciences, San Jose, Calif.), 100,000 cells/well with 200 μl, of culture media. The effect of the drugs on cell survival was assessed, for example, by measuring 3-(4,5-dimethylthiazol-2-yl)-5-(3-carboxymethoxyphenyl)-2-(4-sulphophenyl)-2H-tetrazolium, inner salt (MTS) (Promega, Madison, Wis.) dye absorbance of viable cells by adding 40 μL of 5 mg/mL MTS to each well for the last 4 hours of drug exposure. Additional wells containing cells only (untreated control) or medium only (background medium control) were used as controls. Absorbance at 490 nm (A490) was measured using a spectrophotometer (Dynatech Laboratories, Chantilly, Va.). Viability was estimated according to the following formula: […]
Briefly, the cellular fraction affected (Fa) was calculated based on an MTS assay after exposing cells to the drugs alone or in combination at a given dose compared to untreated cells, using the formula: Fa=100−% Viable Cells. Fa values were entered into Calcusyn software (Biosoft, Ferguson, Mo. and Cambridge, United Kingdom) to obtain CI values. CI values <1.0 indicated a synergistic effect of the drugs used in combination. For Inhibitory Concentration, or IC, calculations, dose-effect curves for MAL3-101, MG-132, 17-AAG, and their combinations were used to interpolate the median inhibitory concentration that caused 30% (IC30), 50% (IC50), and 70% (IC70) reductions in the % viable cells compared to untreated cells.
Cells (1×10^5) were plated in 96-well microtiter plates (Costar, Cambridge, Mass.) in 100 μL, of growth medium and exposed for indicated periods to various concentrations of compounds or their combinations. Control cells were cultured in DMSO. All studies were performed in triplicate and repeated at least three times independently. Survival was measured by an MTS assay (Promega, Madison, Wis.) as per the manufacturer's directions. The absorbance (A450) ratio of treated to untreated cells, after the subtraction of background absorbance, was multiplied by 100 to obtain percent cell survival. Cell death was measured by trypan blue dye exclusion in identically plated cultures.
DMSO-treated cultures were compared to drug-treated cultures by Student's t tests or by Dunnett's post-hoc test following significant repeated-measures one-way analysis of variance. All tests were two-tailed, and statistical significance was set at P≦0.05. Isobologram analysis was performed to derive combination index (CI) values based upon the Chou-Talalay method using CalcuSyn software (Biosoft, Ferguson, Mo. and Cambridge, United Kingdom) as described in L. Catley, E. Weisberg, T. Kiziltepe, Y. T. Tai, T. Hideshima, P. Neri, P. Tassone, P. Atadja, D. Chauhan, N. C. Munshi, K. C. Anderson, Aggresome induction by proteasome inhibitor Bortezomib and {alpha}-tubulin hyperacetylation by tubulin deacetylase (TDAC) inhibitor LBH589 are synergistic in myeloma cells, Blood (2006), which is incorporated herein by reference.

The subject of a further data set is primary MM cells. Kind of data set: MTS survival assay, primary bone-marrow MM tumor cells from patients. Format: cell-based, human. The note with it: FIG. 36C. As for the experimental part: Primary bone-marrow tumor cells and endothelial progenitor cells (EPCs) were obtained from previously untreated MM patients. That is, 10 ml bone marrow aspirates were collected in BD Vacutainers containing heparin (BD, Franklin, N.J.), and red cells may be removed from MM bone marrow samples using a Red Blood Cell Lysis Buffer (Roche Applied Science, Indianapolis, Ind.) to obtain primary tumor cells in marrow samples consisting of greater than 80% CD138-positive tumor cells, determined by flow cytometry as may be desired. Tumor cells were used for experiments the day they were harvested, and were cultured in the MM cell line medium described above.
MAL3-101 (the structure is shown as the final product in FIG. 12, in FIG. 13, and in FIG. 25B), the proteasome inhibitor MG-132 (A.G. Scientific, San Diego, Calif.) and the Hsp90 inhibitor 17-allylamino-17-demethoxygeldanamycin (17-AAG) (Calbiochem/EMD Biosciences, San Diego, Calif.) were dissolved in dimethylsulfoxide (DMSO; Sigma-Aldrich, St. Louis, Mo.), and stored at −20° C. Final concentration of DMSO was 0.03% and this was used to treat control cells. The MM cell lines examined were NCI-H929, RPMI-8226, and U266 (ATCC, Manassas, Va.). Normal peripheral blood mononuclear cells (PBMC) and bone marrow (BM) cells were obtained from StemCell Technologies (Vancouver, Canada). […]
For orientation: Formazan colour is commonly taken as a measure of viable cells.

The mark [1] stands for this setting: read-out: IC50 (reduction of % viable cells), single agent, NCI-H929, 40 h exposure, MTS assay, agent alone.

“Also recorded” adds a separate entry of the source. Where two headings read alike, the source gives them in different places. Residues, ends and D or L forms follow the SMILES beside them. *: point of attachment. Cbz = O=C(OCc1ccccc1)*

As a reminder, the IC50 is the point on the concentration scale where inhibition reaches its midpoint. As to `CCCCCCN(C(=O)CCCCCN1C(=O)NC(c2ccc(-c3ccccc3)cc2)C(C(=O)OCc2ccccc2)=C1C)C(C(=O)NCCCC)c1ccc(OCC(=O)OC)c(C(=O)OC)c1` (centres unmarked) [MAL3-101], the “cytotoxicity compared among MM cell lines” value in the data set with NCI-H929 (10 μM, NCI-H929 versus RPMI-8226 and U266) is given as “most sensitive; also recorded: highest level of cytotoxicity”. Further, the IC50 in the data set with NCI-H929 (setting [1]) was 8300 nM; with NCI-H929 (read-out: IC50 as stated in the detailed description, multiple myeloma cells, rounded statement of the description) it was 10000 nM. Further, the “reduction of viability of MM cells extracted from the BM” value in the data set on primary MM cells stood at 33±8%.

As to `CC(C)C[C@@H](C=O)NC(=O)[C@H](CC(C)C)NC(=O)[C@H](CC(C)C)NC(=O)OCc1ccccc1` [MG-132, reference compound] (Cbz-Leu-Leu-Leu-aldehyde), the IC50 with NCI-H929 (Homo sapiens, NCI-H929, 40 h, read-out: IC50 (reduction of % viable cells), single agent, NCI-H929, 40 h exposure, MTS assay, agent alone) came out at 1000 nM; with NCI-H929 (Homo sapiens, NCI-H929, 40 h, read-out: IC50 of MG-132 in the presence of MAL3-101, NCI-H929, 40 h, MTS, MAL3-101 and MG-132 at equal concentrations), 10 nM; with NCI-H929 (setting [1]), 1700 nM. Also, the “reduction of viability of MM cells extracted from the BM” value in the data set with primary MM cells was 44±10%.
